# Experimental data from patent US10251943B2, “PLIF multimeric peptides and uses thereof” (Ramot at Tel-Aviv University Ltd., priority 2012, dated 2019).
# “Also recorded” adds a separate entry of the source. Bridges are numbered along the chain shown (N, C = ends). Roman numbers before positions name the chains, in order. Where no end group is shown, it is not given here.
# Key:
# human T cells (HDMAR) = test: Binding to HDMAR human T cell line (detected by anti-C24D IgG); type: cell-based
# [1] = test system: MCF-7 human breast cancer cells; test: MCF-7 tumor development in nude mice transfused with human PBMC; type: in vivo, Athymic BALB/c nude mice
# Description: Athymic BALB/c nude mice were purchased from Harlan Laboratories Ltd. Mice were inoculated subcutaneously (s.c.) with MCF-7 human breast cancer cells (6×10^6), in the presence of an estrogen source (0.72 mg). The slow-release pellets (60-day release) were implanted s.c. into the cervical scapular space.
# Buffy coats from blood bank donors were layered onto Lymphoprep solution (Nycomed, Oslo, Norway) and spun at 2000 rpm for 20 minutes. The interface layer was collected, washed twice, counted, and resuspended in PBS (pH 7.4) to the desired cell concentration. Human PBMC (50×10^6/0.5 ml) were injected intravenously after transplantation of MCF-7 tumor cells as described above.
# In each experiment, mice were divided into groups of five. C24D dissolved in PBS pH 7.2 was injected i.p. to each mouse daily, at an optimal dose of 60 μg/0.2 ml. Control mice received daily injections of PBS.
# Tumors were excised, measured, and fixed in phosphate-buffer formalin (pH 7.0) from which paraffin embedded blocks were prepared.
# Four-micron tissue sections were cut from paraffin-embedded blocks and mounted on coated super frost plus slides. They were deparaffinized in xylene, and rehydrated with graded alcohols, rinsed in H2O, and then incubated in 3% H2O2 for 10 minutes and washed in H2O.
# For antigen unmasking, the sections were heated in 10 mM of sodium citrate buffer (pH 6.0) for 10 minutes in microwaves or pressure chambers, depending on the manufacturer's instructions, and then cooled at room temperature for 20 minutes. Slides were washed in H2O and in PBS buffer for 5 minutes.
# Slides were incubated in normal serum for 10 minutes from a kit (Zymed Laboratories, San Francisco, Calif.). For immunohistochemical staining, performed manually, slides were incubated with primary antibodies at previously determined optimal concentrations, for 60 minutes at room temperature, as summarized in Table 4, herein below.
# Slides were washed in H2O and in PBS buffer for 5 minutes and further incubated for 10 minutes with a biothylated second antibody (Zymed Laboratories, San Francisco, Calif.), followed by PBS. […]
# [2] = test system: MCF-7 human breast cancer cells; test: MCF-7 and PBMC co-culture in vitro; type: cell-based
# Description: The MCF-7 human breast carcinoma cell line was maintained in monolayer cultures in RPMI-1640 medium supplemented with 10% fetal calf serum. For passages, confluent monolayer cultures were trypsinized with trypsin/EDTA solution (0.25%/0.05%, respectively), washed once, and seeded in culture medium.
# (§1) Buffy coats from blood bank donors were layered onto Lymphoprep solution (Nycomed, Oslo, Norway) and spun at 2000 rpm for 20 minutes. The interface layer was collected, washed twice, counted, and resuspended in PBS; pH 7.4 to the desired cell concentration.
# MCF-7 was maintained in RPMI+fetal calf serum (FCS) 10%. 1 day before the experimental start, the medium was replaced with RPMI+human AB serum 10%. PBMC (1×10^6) were added to MCF-7 (0.1×10^6) at a final volume of 1 ml dispensed into 24-well plates. The cells were treated with C24D 30 μg/ml at 0, 24 and 48 hours. The cells without treatment were used as a control. Plates were washed, fixed for 1 hour with 4% formaldehyde solution and stained with Giemsa for microscopic evaluation on experimental days 1, 5, and 8.
# PBMC were removed from the following cell cultures: a) non-treated control MCF-7+PBMC, b) control (only PBMC cultured with C24D), and c) C24D-treated MCF-7+PBMC. All were transferred to new untreated MCF-7 cell monolayer cultures.
# T47D cells = test: T47D and PBMC co-culture in vitro; type: cell-based, human
# Description: Human ductal breast epithelial tumor cell line (T47D) was maintained in RPMI-1640 medium supplemented with 10% fetal calf serum.
# as §1
# T47D was maintained in RPMI+FCS 10%. 1 day before the start of the experiment, the medium was replaced with RPMI+AB human serum 10%. PBMCs (1×10^6) were added to T47D (0.1×10^6) at a final volume 1 ml into 24-well plates. The cells were treated with C24D (30 μg/ml) at 0, 24 and 48 hours. The cells without treatment were used as a control. Plates were washed, fixed for 1 hour with 4% formaldehyde solution and stained with Giemsa for microscopic evaluation on experimental days 1, 5, and 8.
# After five days of primary culture with T47D and C24D, PBMCs (1 million) were added to fresh T47D (0.1 million) at a final volume 1 ml into 24-well plates. The cells were treated with C24D (30 μg/ml) at 0, 24 and 48 hours. After 4 days of culture, the cells were examined. […] The ratio between T47D and PBMCs was 1:10. Two days after incubation the cells were examined as illustrated in FIGS. 20A-B.
# [3] = test system: C48 receptor on human T cells; test: Inhibition of C48 binding to HDMAR human T cells (detected by anti-C48 IgG-FITC); type: cell-based; details: pre-incubation of HDMAR T cells with different concentrations
# [4] = test system: human PBMC activated with OKT3 MoAb; test: Cell stimulation and cytokine production (ELISA of supernatants); type: cell-based; details: for Level of INF-γ: vs control cultures; for Level of IL-10: vs control cells
# Description: Peripheral blood mononuclear cells (PBMC) at 2×10^6 in 1 ml of 5% human serum/RPMI-1640 were cultured in a 10 ml round-bottom tube, treated with C48 (2 μg/ml), C24D (10 μg/ml), or non-treated. Subsequently, these cultures were stimulated with OKT3 MoAb (100 ng/ml) or non-stimulated. Supernatants were collected at 24, and 72 hours for analysis of IL-10 and other cytokines as indicated in each experiment.
# The ELISA kits for the human cytokines TNF-α, IL-10 and IFN-γ were purchased from DPC, and R&D Systems, USA. These kits were used to quantify the indicated cytokines production in the supernatants, according to the manufacturer's instructions.
# as §1
# pregnancy development = details: vaccination of mice prior to mating; cited from earlier work
# human macrophages = test: Binding to the surface of human macrophages (FITC-labelled antibody detection); type: cell-based; details: detected by mouse anti-C24D IgG-FITC and rabbit anti-C48 IgG-FITC
Substance,Binding to the surface of human T cells (HDMAR) (human T cells (HDMAR)),"Tumor growth ([1]; Nude mice transfused with human lymphocytes and engrafted with MCF-7, vs PBS)","Mean tumor volume ([1]; after 19 days, daily i.p. 60 μg, nude mice with MCF-7 and human PBMC)",Tumoral necrosis (histochemical analysis) ([1]; tumors removed from treated mice vs control),MCF-7 cell monolayer lysis (Giemsa staining) ([2]; MCF7 incubated with PBMC for 5 days),"Lysis of MCF-7 cancer cells ([2]; MCF-7 and PBMC (1:10) cultured 8 days at 37° C., C24D 30 μg/ml)",Cytotoxic effect and growth inhibition of MCF-7 cells ([2]; MCF-7 cultured with human PBMC for 5-8 days),Cytotoxicity of transferred PBMC on secondary untreated MCF-7 culture ([2]; PBMC removed from C24D-treated MCF-7+PBMC cultures),T47D tumor cell lysis (T47D cells; 7 days of incubation with C24D and PBMCs),"Cytotoxicity on secondary T47D culture (T47D cells; PBMCs from 5-day primary culture added to fresh T47D, C24D 30 μg/ml, 4 days)",Lysis of T47D cancer cells (T47D cells; T47D and PBMC (1:10) cultured 5 days at 37° C.),Inhibition of the binding of C48 to T cells [3],"Level of INF-γ in the presence of C48 ([4]; 72 hours, together with C48)",Level of INF-γ ([4]; 72 hours),Level of IL-10 when added together with C48 ([4]; culture together with C48),Level of IL-10 [4],Pregnancy development (pregnancy development),Binding to the surface of human macrophages (human macrophages)
C24-48M: monomeric synthetic polypeptide comprising the C48 terminal amino acids (aa) 24-48 (HHLLRPRRRKRPHSIPTPILIFRSP) [reference compound],does not,–,–,–,–,–,–,–,–,–,–,–,–,–,–,–,–,–
"C24D: covalently linked dimer of identical polypeptide chains, each SEQ ID NO: 1 plus N-terminal Cysteine and Glycine; SEQ ID NO: 102 (chain 1 CGHHLLRPRRRKRPHSIPTPILIFRSP; chain 2 CGHHLLRPRRRKRPHSIPTPILIFRSP; disulfide I:1-II:1)",bind similarly to the surface of human T cells; also recorded: binds to the surface of human T cells,inhibited significantly the tumor growth; also recorded: tumor growth inhibition and cytotoxicity,42.5±14 mm^3,Large areas of tumoral necrosis,monolayer lysis,resulted in lysis of the cancer cells,cytotoxic effect and tumor cell growth inhibition,cytotoxic to the tumor cells,An increase in tumor cell lysis,cytotoxic effect,resulted in lysis of the cancer cells,inhibits the binding of C48 to T cells,increased significantly,increased significantly; also recorded: high levels of INF-γ,decreased the high level of IL-10,did not increase the level of IL-10,–,–
"C48: subcloned recombinant C-terminal 48 amino acids of PLIF, its bioactive domain (SEQ ID NO: 100) (FPSPISPSPSCWHHYTTNRPQPQHHLLRPRRRKRPHSIPTPILIFRSP; Placental Immunoregulatory Ferritin (PLIF), C′, derived peptide C48)",bind similarly to the surface of human T cells,–,–,–,–,–,–,–,–,–,–,–,–,did not affect the INF-γ level; also recorded: no INF-γ,–,high level of IL-10; also recorded: high IL-10 levels,prevented pregnancy development,binds to the surface of human macrophages
